# According to patent US9440953B2, “Substituted amino triazoles useful as acidic mammalian chitinase inhibitors” (OncoArendi Therapeutics Sp z o.o., priority 2014, dated 2016):
# Target: recombinant human AMCase (Homo sapiens, UniProt Q9BZP6)
# Assay: Human AMCase Activity Assay
# Type: biochemical
# Conditions: recombinant hAMCase, 4-methylumbelliferyl B-D-N,N′-diacetylchitobioside substrate, citrate buffer pH 5.2, 37° C., 60 minutes
# Experimental: Human AMCase Activity Assay
# The assay was run in the 96-well plate format, each reaction in the total volume of 100 μL. 4-Methylumbelliferyl B-D-N,N′-diacetylchitobioside hydrate was used as a substrate for the enzyme. Upon hydrolysis by AMCase, the substrate releases 4-methylumbelliferyl (4MU) that, when ionized in basic pH, emits fluorescence at 460 nm.
# Briefly, 40 μL of a substrate was added to each well, followed by 10 μL of compound dilution and 50 μL of hAMCase recombinant enzyme solution. […] The fluorescence of the reaction product was measured in Perkin Elmer Envision fluorescent plate reader at an excitation wavelength of 355 nm.
# Sequence of recombinant human AMCase (Q9BZP6 22-476): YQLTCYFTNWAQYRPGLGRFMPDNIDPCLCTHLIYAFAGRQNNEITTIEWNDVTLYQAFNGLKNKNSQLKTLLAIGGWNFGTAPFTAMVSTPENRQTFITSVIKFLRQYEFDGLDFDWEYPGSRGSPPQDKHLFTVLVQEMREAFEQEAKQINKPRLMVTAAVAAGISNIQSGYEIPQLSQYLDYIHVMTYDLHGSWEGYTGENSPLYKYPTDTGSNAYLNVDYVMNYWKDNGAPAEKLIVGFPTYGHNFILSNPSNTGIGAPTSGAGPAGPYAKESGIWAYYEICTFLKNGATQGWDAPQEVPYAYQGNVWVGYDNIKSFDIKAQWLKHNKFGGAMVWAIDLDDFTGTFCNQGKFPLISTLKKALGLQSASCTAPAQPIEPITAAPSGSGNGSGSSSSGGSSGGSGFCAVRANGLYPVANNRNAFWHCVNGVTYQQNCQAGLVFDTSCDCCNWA
row,IC50,SMILES
1,100 to 1000 nM,"CC(C)NC(=O)CN(CCc1ccc(Cl)cc1)C1CCN(c2nc(N)n[nH]2)CC1 [Example 22, 2-((1-(3-amino-1H-1,2,4-triazol-5-yl)piperidin-4-yl)(4-chlorophenethyl)amino)-N-isopropylacetamide]"
2,1 to 10 nM,"CNC(=O)c1ccc(CN(CCc2ccc(Br)cc2)C2CCN(c3nc(N)n[nH]3)CC2)cc1 [Example 35, 4-(((1-(3-amino-1H-1,2,4-triazol-5-yl)piperidin-4-yl)(4-bromophenethyl)-amino)methyl)-N-methylbenzamide]"
3,1 to 10 nM,"CC(=O)NS(=O)(=O)c1cccc(CN(CCc2ccc(Br)cc2)C2CCN(c3nc(N)n[nH]3)CC2)c1 [Example 18, N-((3-(((1-(3-amino-1H-1,2,4-triazol-5-yl)piperidin-4-yl)(4-bromophenethyl)-amino)methyl)phenyl)sulfonyl)acetamide]"
4,1 to 10 nM,"CC(=O)NS(=O)(=O)c1ccc(CN(CCc2ccc(Br)cc2)C2CCN(c3nc(N)n[nH]3)CC2)cc1 [Example 16, N-((4-(((1-(3-amino-1H-1,2,4-triazol-5-yl)piperidin-4-yl)(4-bromophenethyl)-amino)methyl)phenyl)sulfonyl)acetamide]"
5,100 to 1000 nM,"Nc1n[nH]c(N2CCC(N(CCc3ccc(Cl)cc3)Cc3ccccc3C(=O)O)CC2)n1 [Example 2, 2-(((1-(3-amino-1H-1,2,4-triazol-5-yl)piperidin-4-yl)(4-chlorophenethyl)amino-)methyl)benzoic acid]"
6,1 to 10 nM,"Nc1n[nH]c(N2CCC(N(CCc3ccc(Cl)cc3)Cc3ccc(Cl)c(C(=O)O)c3)CC2)n1 [Example 7, 5-(((1-(3-amino-1H-1,2,4-triazol-5-yl)piperidin-4-yl)(4-chlorophenethyl)amino)-methyl)-2-chlorobenzoic acid]"
7,1 to 10 nM,"CS(=O)(=O)Nc1ccc(CN(CCc2ccc(Cl)cc2)C2CCN(c3nc(N)n[nH]3)CC2)cc1 [Example 33, N-(4-(((1-(3-amino-1H-1,2,4-triazol-5-yl)piperidin-4-yl)(4-chlorophenethyl)-amino)methyl)phenyl)methanesulfonamide]"
8,100 to 1000 nM,"CC(C)NC(=O)NCCN(CCc1ccc(Cl)cc1)C1CCN(c2nc(N)n[nH]2)CC1 [Example 12, 1-(2-((1-(3-amino-1H-1,2,4-triazol-5-yl)piperidin-4-yl)(4-chlorophenethyl)-amino)ethyl)-3-isopropylurea]"
9,1 to 10 nM,"CS(=O)(=O)Nc1cccc(CN(CCc2ccc(Cl)cc2)C2CCN(c3nc(N)n[nH]3)CC2)c1 [Example 32, N-(3-(((1-(3-amino-1H-1,2,4-triazol-5-yl)piperidin-4-yl)(4-chlorophenethyl)-amino)methyl)phenyl)methanesulfonamide]"
10,100 to 1000 nM,"Nc1n[nH]c(N2CCC(N(CCc3ccc(Cl)cc3)CC(=O)Nc3ccccc3)CC2)n1 [Example 21, 2-((1-(3-amino-1H-1,2,4-triazol-5-yl)piperidin-4-yl)(4-chlorophenethyl)amino)-N-phenylacetamide]"
11,1000 to 10000 nM,"Nc1n[nH]c(N2CCC(N(CCc3ccc(Cl)cc3)CC3(C(=O)O)CC3)CC2)n1 [Example 30, 1-(((1-(3-amino-1H-1,2,4-triazol-5-yl)piperidin-4-yl)(4-chlorophenethyl)amino)-methyl)cyclopropanecarboxylic acid]"
12,1 to 10 nM,"CS(=O)(=O)NC(=O)c1ccc(CN(CCc2ccc(Cl)cc2)C2CCN(c3nc(N)n[nH]3)CC2)cc1 [Example 39, 4-(((1-(3-amino-1H-1,2,4-triazol-5-yl)piperidin-4-yl)(4-chlorophenethyl)-amino)methyl)-N-(methylsulfonyl)benzamide]"
13,10 to 100 nM,"CS(=O)(=O)Nc1ccccc1CN(CCc1ccc(Cl)cc1)C1CCN(c2nc(N)n[nH]2)CC1 [Example 31, N-(2-(((1-(3-amino-1H-1,2,4-triazol-5-yl)piperidin-4-yl)(4-chlorophenethyl)-amino)methyl)phenyl)methanesulfonamide]"
14,1 to 10 nM,"CS(=O)(=O)NC(=O)c1cccc(CN(CCc2ccc(Cl)cc2)C2CCN(c3nc(N)n[nH]3)CC2)c1 [Example 40, 3-(((1-(3-amino-1H-1,2,4-triazol-5-yl)piperidin-4-yl)(4-chlorophenethyl)amino)-methyl)-N-(methylsulfonyl)benzamide]"
15,1 to 10 nM,"Cc1ccc(S(=O)(=O)NCCN(CCc2ccc(Br)cc2)C2CCN(c3nc(N)n[nH]3)CC2)cc1 [Example 42, N-(2-((1-(3-amino-1H-1,2,4-triazol-5-yl)piperidin-4-yl)(4-bromophenethyl)-amino)ethyl)-4-methylbenzenesulfonamide]"
16,1000 to 10000 nM,"Nc1n[nH]c(N2CCC(N(CCc3ccc(Cl)cc3)C(CC(=O)O)c3ccc(Cl)cc3)CC2)n1 (centres unmarked) [Example 28, 3-((1-(3-amino-1H-1,2,4-triazol-5-yl)piperidin-4-yl)(4-chlorophenethyl)amino)-3-(4-chlorophenyl)propanoic acid]"

row,IC50,SMILES
1,10 to 100 nM,"CS(=O)(=O)NC(=O)c1cc(CN(CCc2ccc(Cl)cc2)C2CCN(c3nc(N)n[nH]3)CC2)ccc1Cl [Example 41, 5-(((1-(3-amino-1H-1,2,4-triazol-5-yl)piperidin-4-yl)(4-chlorophenethyl)amino)-methyl)-2-chloro-N-(methylsulfonyl)benzamide]"
2,10 to 100 nM,"Nc1n[nH]c(N2CCC(N(CCc3ccc(Cl)cc3)Cc3cccc(S(=O)(=O)NCC(F)(F)F)c3)CC2)n1 [Example 19, 3-(((1-(3-amino-1H-1,2,4-triazol-5-yl)piperidin-4-yl)(4-chlorophenethyl)amino)-methyl)-N-(2,2,2-trifluoroethyl)benzenesulfonamide]"
3,10 to 100 nM,"Nc1n[nH]c(N2CCC(N(CCc3ccc(Cl)cc3)CC(C(=O)O)c3ccc(Cl)cc3)CC2)n1 (centres unmarked) [Example 29, 3-((1-(3-amino-1H-1,2,4-triazol-5-yl)piperidin-4-yl)(4-chlorophenethyl)amino)-2-(4-chlorophenyl)propanoic acid]"
4,1000 to 10000 nM,"Nc1n[nH]c(N2CCC(N(CCC(=O)O)CCc3ccc(Cl)cc3)CC2)n1 [Example 26, 3-((1-(3-amino-1H-1,2,4-triazol-5-yl)piperidin-4-yl)(4-chlorophenethyl)-amino)propanoic acid]"
5,1 to 10 nM,"Nc1n[nH]c(N2CCC(N(CCc3ccc(Br)cc3)Cc3cccc(C(=O)O)c3)CC2)n1 [Example 3, 3-(((1-(3-amino-1H-1,2,4-triazol-5-yl)piperidin-4-yl)(4-bromophenethyl)amino)-methyl)benzoic acid]"
6,1 to 10 nM,"NC(=O)c1ccc(CN(CCc2ccc(Br)cc2)C2CCN(c3nc(N)n[nH]3)CC2)cc1 [Example 34, 4-(((1-(3-amino-1H-1,2,4-triazol-5-yl)piperidin-4-yl)(4-bromophenethyl)-amino)methyl)benzamide]"
7,1 to 10 nM,"Nc1n[nH]c(N2CCC(N(CCc3ccc(Cl)cc3)Cc3cccc(-c4nnn[nH]4)c3)CC2)n1 [Example 36, N-(3-(1H-tetrazol-5-yl)benzyl)-1-(3-amino-1H-1,2,4-triazol-5-yl)-N-(4-chlorophenethyl)piperidin-4-amine]"
8,1 to 10 nM,"Nc1n[nH]c(N2CCC(N(CCc3ccc(Br)cc3)Cc3ccc(S(N)(=O)=O)cc3)CC2)n1 [Example 15, 4-(((1-(3-amino-1H-1,2,4-triazol-5-yl)piperidin-4-yl)(4-bromophenethyl)amino)-methyl)benzenesulfonamide]"
9,10 to 100 nM,"CC(=O)NS(=O)(=O)CCN(CCc1ccc(Cl)cc1)C1CCN(c2nc(N)n[nH]2)CC1 [Example 38, N-((2-((1-(3-amino-1H-1,2,4-triazol-5-yl)piperidin-4-yl)(4-chlorophenethyl)-amino)ethyl)sulfonyl)acetamide]"
10,10 to 100 nM,"Nc1n[nH]c(N2CCC(N(CCc3ccc(Cl)cc3)Cc3nnn[nH]3)CC2)n1 [Example 43, N-((1H-tetrazol-5-yl)methyl)-1-(3-amino-1H-1,2,4-triazol-5-yl)-N-(4-chlorophenethyl)piperidin-4-amine]"
11,1 to 10 nM,"CC(C)C(=O)NS(=O)(=O)c1ccc(CN(CCc2ccc(Br)cc2)C2CCN(c3nc(N)n[nH]3)CC2)cc1 [Example 17, N-((4-(((1-(3-amino-1H-1,2,4-triazol-5-yl)piperidin-4-yl)(4-bromophenethyl)-amino)methyl)phenyl)sulfonyl)isobutyramide]"
12,100 to 1000 nM,"Nc1n[nH]c(N2CCC(N(CCNC(=O)C(F)(F)F)CCc3ccc(Cl)cc3)CC2)n1 [Example 14, N-(2-((1-(3-amino-1H-1,2,4-triazol-5-yl)piperidin-4-yl)(4-chlorophenethyl)-amino)ethyl)-2,2,2-trifluoroacetamide]"
13,1 to 10 nM,"CS(=O)(=O)NCCCN(CCc1ccc(Br)cc1)C1CCN(c2nc(N)n[nH]2)CC1 [Example 23, N-(3-((1-(3-amino-1H-1,2,4-triazol-5-yl)piperidin-4-yl)(4-bromophenethyl)-amino)propyl)methanesulfonamide]"
14,1 to 10 nM,"Cc1cc(CN(CCc2ccc(Cl)cc2)C2CCN(c3nc(N)n[nH]3)CC2)ccc1C(=O)O [Example 5, 4-(((1-(3-amino-1H-1,2,4-triazol-5-yl)piperidin-4-yl)(4-chlorophenethyl)amino)-methyl)-2-methylbenzoic acid]"
15,1 to 10 nM,"Cc1ccc(S(=O)(=O)NCCCN(CCc2ccc(Br)cc2)C2CCN(c3nc(N)n[nH]3)CC2)cc1 [Example 24, N-(3-((1-(3-amino-1H-1,2,4-triazol-5-yl)piperidin-4-yl)(4-bromophenethyl)-amino)propyl)-4-methylbenzenesulfonamide]"
16,10 to 100 nM,"Nc1n[nH]c(N2CCC(N(CCNC(=O)c3ccccc3)CCc3ccc(Cl)cc3)CC2)n1 [Example 9, N-(2-((1-(3-amino-1H-1,2,4-triazol-5-yl)piperidin-4-yl)(4-chlorophenethyl)amino)-ethyl)benzamide]"
